Laboratory results reported in patent US7022648B2, “Plant seeds treated with N,N′-substituted ureas” (Stoller Enterprises, Inc., priority 1996, dated 2006).
Several values for one entry are separate records, joined by “and”; a condition that tells them apart may be missing. Equal entries are not always repeated.

Experiments:
Type in all cases: in vivo
Rice = test: Greenhouse pot test, effect of diformylurea concentration applied to seeds; conditions: seed treated, 24 h soak, 30 days; for Roots (gm), Average / Shoots (gm), Average / Total (gm), Average: average of samples
Procedure: (§1) Additional experiments were designed to study further the effect of the concentration of diformylurea applied to the seeds of several other crops. These experiments were conducted using cotton, rice, corn and soybeans. These experiments were similar to the preliminary experiments described above. The concentrate described above, containing both diformylurea and formate, was used to prepare solutions containing low, medium and high concentrations of diformylurea having, respectively, 0.001 M, 0.01 M and 0.05 M diformylurea. These solutions were used to treat the seeds of cotton, rice, corn and soybeans. Seeds of each of these crops were soaked in water or the prepared aqueous solutions of diformylurea for 24 hours before planting. Five seeds were planted in each of six, 1 gallon greenhouse pots. Pots were thinned to two plants after germination and the plants watered and fertilized as needed for 30 days. Thereafter, the plants were harvested and the mass of the roots, shoots and total mass determined.

Cotton = test: as above; conditions: seed treated, 24 h soak, 30 days; for Roots (gm), Average / Shoots (gm), Average / Total (gm), Average: average of samples
Procedure: as §1

Soybean = test: as above; conditions: seed treated, 24 h soak, 30 days; for Roots (gm), Average / Shoots (gm), Average / Total (gm), Average: average of samples
Procedure: as §1

Corn [1] = test: as above; conditions: seed treated, 24 h soak, 30 days; for Roots (gm), Average / Shoots (gm), Average / Total (gm), Average: average of samples; for Roots (gm) / Shoots (gm) / Total (gm): single sample (pot)
Procedure: as §1

Peanuts = test: Greenhouse pot test, seed treatment 0.01 M diformylurea; conditions: seed treated, 24 h soak, 30 days
Procedure: (§2) Based upon the foregoing preliminary work, additional experiments to investigate the effect of diformylurea on other plant species was undertaken. These experiments were also designed to compare the effect of treating seeds as described above with foliar treatment. Wheat, corn and peanuts were selected for the next phase of this work. Diformylurea was prepared by reacting formic acid and urea at a molar ratio of 2:1 as described above. An aqueous solution containing diformylurea at a concentration of 0.01 M was prepared. For the seed treatment portion of the experiments, the seeds to be treated were soaked in the foregoing solution for about 24 hours before planting. The control seeds were again soaked in water for the same time. Both control and treated seeds were planted in 1 gallon greenhouse pots. Five seeds were planted in each pot. Each pot was thinned to two plants after germination. For the foliar treatment portion of the experiment, plants grown from untreated seeds were sprayed with a solution containing 0.01 M. diformylurea at the three leaf stage. All plants were watered and fertilized as required. Thirty days after planting, the plants were harvested and the roots and shoots examined. The mass of both the roots and shoots and the total mass of the plant in each pot were determined.

Wheat = test: as above; conditions: seed treated, 24 h soak, 30 days
Procedure: as §2

Corn [2] = test: as above; conditions: seed treated, 24 h soak, 30 days
Procedure: as §2

O=CNC(=O)NC=O [diformylurea, N,N′-diformylurea]
Percent Change v. Control, Roots (Rice; 0.001 M): 37% | Percent Change v. Control, Shoots (Rice; 0.001 M): 42% | Percent Change v. Control, Total (Rice; 0.001 M): 39% | Root/Shoot Ratio (Rice; 0.001 M): 1.79 | Roots (gm), Average (Rice; 0.001 M): 0.61 gm | Shoots (gm), Average (Rice; 0.001 M): 0.34 gm | Total (gm), Average (Rice; 0.001 M): 0.95 gm | Percent Change v. Control, Roots (Rice; 0.01 M): 13% | Percent Change v. Control, Shoots (Rice; 0.01 M): 29% | Percent Change v. Control, Total (Rice; 0.01 M): 19% | Root/Shoot Ratio (Rice; 0.01 M): 1.67 | Roots (gm), Average (Rice; 0.01 M): 0.51 gm | Shoots (gm), Average (Rice; 0.01 M): 0.31 gm | Total (gm), Average (Rice; 0.01 M): 0.82 gm | Percent Change v. Control, Roots (Rice; 0.05 M): 82% | Percent Change v. Control, Shoots (Rice; 0.05 M): 63% | Percent Change v. Control, Total (Rice; 0.05 M): 76% | Root/Shoot Ratio (Rice; 0.05 M): 2.13 | Roots (gm), Average (Rice; 0.05 M): 0.82 gm | Shoots (gm), Average (Rice; 0.05 M): 0.39 gm | Total (gm), Average (Rice; 0.05 M): 1.21 gm | Percent Change v. Control, Roots (Cotton; 0.001 M): 159% | Percent Change v. Control, Shoots (Cotton; 0.001 M): 18% | Percent Change v. Control, Total (Cotton; 0.001 M): 74% | Root/Shoot Ratio (Cotton; 0.001 M): 1.46 | Roots (gm), Average (Cotton; 0.001 M): 7.85 gm | Shoots (gm), Average (Cotton; 0.001 M): 5.38 gm | Total (gm), Average (Cotton; 0.001 M): 13.23 gm | Shoots (gm) (Cotton; 0.001 M, single sample (pot)): 4.80 gm and 4.40 gm and 6.20 gm and 5.50 gm and 5.70 gm | Total (gm) (Cotton; 0.001 M, single sample (pot)): 8.60 gm and 12.40 gm and 16.20 gm and 14.70 gm and 12.60 gm and 14.90 gm | Percent Change v. Control, Roots (Cotton; 0.01 M): 49% | Percent Change v. Control, Shoots (Cotton; 0.01 M): 15% | Percent Change v. Control, Total (Cotton; 0.01 M): 28% | Root/Shoot Ratio (Cotton; 0.01 M): 0.86 | Roots (gm), Average (Cotton; 0.01 M): 4.50 gm | Shoots (gm), Average (Cotton; 0.01 M): 5.25 gm | Total (gm), Average (Cotton; 0.01 M): 9.75 gm | Shoots (gm) (Cotton; 0.01 M, single sample (pot)): 4.00 gm and 6.00 gm and 4.90 gm and 7.20 gm and 4.80 gm and 4.60 gm | Percent Change v. Control, Roots (Cotton; 0.05 M): 67% | Percent Change v. Control, Shoots (Cotton; 0.05 M): 29% | Percent Change v. Control, Total (Cotton; 0.05 M): 44% | Root/Shoot Ratio (Cotton; 0.05 M): 0.86 | Roots (gm), Average (Cotton; 0.05 M): 5.07 gm | Shoots (gm), Average (Cotton; 0.05 M): 5.90 gm | Total (gm), Average (Cotton; 0.05 M): 10.97 gm | Roots (gm) (Cotton; 0.05 M, single sample (pot)): 4.30 gm and 6.00 gm and 4.20 gm and 4.60 gm and 4.70 gm and 6.60 gm | Shoots (gm) (Cotton; 0.05 M, single sample (pot)): 4.70 gm and 5.00 gm and 6.40 gm and 5.40 gm and 6.90 gm and 7.00 gm | Total (gm) (Cotton; 0.05 M, single sample (pot)): 9.00 gm and 11.00 gm and 10.60 gm and 10.80 gm and 11.60 gm and 13.60 gm | Percent Change v. Control, Roots (Soybean; 0.001 M): 89% | Percent Change v. Control, Shoots (Soybean; 0.001 M): 29% | Percent Change v. Control, Total (Soybean; 0.001 M): 52% | Root/Shoot Ratio (Soybean; 0.001 M): 0.93 | Roots (gm), Average (Soybean; 0.001 M): 9.18 gm | Shoots (gm), Average (Soybean; 0.001 M): 9.87 gm | Total (gm), Average (Soybean; 0.001 M): 19.05 gm | Roots (gm) (Soybean; 0.001 M, single sample (pot)): 7.30 gm and 8.00 gm and 11.30 gm and 12.30 gm and 7.80 gm and 8.40 gm | Shoots (gm) (Soybean; 0.001 M, single sample (pot)): 10.20 gm and 10.30 gm and 9.30 gm and 10.90 gm and 8.70 gm and 9.80 gm | Total (gm) (Soybean; 0.001 M, single sample (pot)): 17.50 gm and 18.30 gm and 20.60 gm and 23.20 gm and 16.50 gm and 18.20 gm | Percent Change v. Control, Roots (Soybean; 0.01 M): 54% | Percent Change v. Control, Shoots (Soybean; 0.01 M): 16% | Percent Change v. Control, Total (Soybean; 0.01 M): 31% | Root/Shoot Ratio (Soybean; 0.01 M): 0.84 | Roots (gm), Average (Soybean; 0.01 M): 7.48 gm | Shoots (gm), Average (Soybean; 0.01 M): 8.86 gm | Total (gm), Average (Soybean; 0.01 M): 16.34 gm | Shoots (gm) (Soybean; 0.01 M, single sample (pot)): 11.20 gm and 6.00 gm and 8.30 gm and 9.90 gm and 8.90 gm | Percent Change v. Control, Roots (Corn [1]; 0.001 M): 2% | Percent Change v. Control, Shoots (Corn [1]; 0.001 M): 5% | Percent Change v. Control, Total (Corn [1]; 0.001 M): 3% | Root/Shoot Ratio (Corn [1]; 0.001 M): 1.04 | Roots (gm), Average (Corn [1]; 0.001 M): 19.65 gm | Shoots (gm), Average (Corn [1]; 0.001 M): 18.85 gm | Total (gm), Average (Corn [1]; 0.001 M): 38.50 gm | Roots (gm) (Corn [1]; 0.001 M): 18.90 gm and 17.20 gm and 27.00 gm and 19.10 gm and 18.10 gm and 17.60 gm | Shoots (gm) (Corn [1]; 0.001 M): 21.10 gm and 14.00 gm and 17.60 gm and 22.00 gm and 18.90 gm and 19.50 gm | Total (gm) (Corn [1]; 0.001 M): 40.00 gm and 31.20 gm and 44.60 gm and 41.10 gm and 37.00 gm and 37.10 gm | Percent Change v. Control, Roots (Corn [1]; 0.01 M): 9% | Percent Change v. Control, Shoots (Corn [1]; 0.01 M): 7% | Percent Change v. Control, Total (Corn [1]; 0.01 M): 8% | Root/Shoot Ratio (Corn [1]; 0.01 M): 1.09 | Roots (gm), Average (Corn [1]; 0.01 M): 20.92 gm | Shoots (gm), Average (Corn [1]; 0.01 M): 19.17 gm | Total (gm), Average (Corn [1]; 0.01 M): 40.09 gm | Roots (gm) (Corn [1]; 0.01 M): 16.20 gm and 25.10 gm and 24.10 gm and 20.00 gm and 15.30 gm and 24.80 gm | Shoots (gm) (Corn [1]; 0.01 M): 18.60 gm and 22.10 gm and 23.00 gm and 16.60 gm and 15.50 gm and 19.70 gm | Total (gm) (Corn [1]; 0.01 M): 34.80 gm and 47.20 gm and 47.10 gm and 36.60 gm and 30.80 gm and 44.50 gm | Percent Change v. Control, Roots (Corn [1]; 0.05 M): 0% | Percent Change v. Control, Shoots (Corn [1]; 0.05 M): −2% | Percent Change v. Control, Total (Corn [1]; 0.05 M): −1% | Root/Shoot Ratio (Corn [1]; 0.05 M): 1.09 | Roots (gm), Average (Corn [1]; 0.05 M): 19.20 gm | Shoots (gm), Average (Corn [1]; 0.05 M): 17.62 gm | Total (gm), Average (Corn [1]; 0.05 M): 36.82 gm | Roots (gm) (Corn [1]; 0.05 M): 17.90 gm and 20.40 gm and 17.80 gm and 21.20 gm and 18.70 gm | Shoots (gm) (Corn [1]; 0.05 M): 17.40 gm and 20.60 gm and 15.90 gm and 18.40 gm and 15.80 gm | Total (gm) (Corn [1]; 0.05 M): 35.30 gm and 41.00 gm and 33.70 gm and 39.60 gm and 34.50 gm | Percent Change v. Control, Roots (Peanuts): 17% | Percent Change v. Control, Shoots (Peanuts): 31% | Percent Change v. Control, Total (Peanuts): 24% | Root/Shoot Ratio (Peanuts): 0.98 | Roots (gm), Average (Peanuts; average of samples): 19.93 gm | Shoots (gm), Average (Peanuts; average of samples): 20.30 gm | Total (gm), Average (Peanuts; average of samples): 40.23 gm | Roots (gm) (Peanuts; single sample (pot)): 20.11 gm and 22.04 gm and 21.60 gm and 16.74 gm and 16.46 gm and 22.65 gm | Shoots (gm) (Peanuts; single sample (pot)): 20.46 gm and 22.34 gm and 19.03 gm and 17.77 gm and 20.20 gm and 22.00 gm | Total (gm) (Peanuts; single sample (pot)): 40.57 gm and 44.38 gm and 40.63 gm and 34.51 gm and 36.66 gm and 44.65 gm | Percent Change v. Control, Roots (Wheat): 117% | Percent Change v. Control, Shoots (Wheat): 266% | Percent Change v. Control, Total (Wheat): 135% | Root/Shoot Ratio (Wheat): 4.39 | Roots (gm), Average (Wheat; average of samples): 45.40 gm | Shoots (gm), Average (Wheat; average of samples): 10.35 gm | Total (gm), Average (Wheat; average of samples): 55.74 gm | Percent Change v. Control, Roots (Corn [2]): 30% | Percent Change v. Control, Shoots (Corn [2]): 16% | Percent Change v. Control, Total (Corn [2]): 24% | Root/Shoot Ratio (Corn [2]): 1.80 | Roots (gm), Average (Corn [2]; average of samples): 58.92 gm | Shoots (gm), Average (Corn [2]; average of samples): 32.73 gm | Total (gm), Average (Corn [2]; average of samples): 91.65 gm
